Experimental data as given in US20080279800A1, “AROMACHEMICALS” (Flexitral, Inc., priority 2007, published 2008).

Test: Toxicology tests, oral LD50
Settings: rat, in vivo, rats

CC(C(C)C(C)(C)C)C(C)C1(C)CO1 (stereo not shown) [2-methyl-2-(1,2,3,4,4-pentamethylpentyl)oxirane]
LD50: > 2000 mg/kg
